# In patent publication US20230085307A1, “PYRIDAZINONE COMPOUND AND HERBICIDE” (NISSAN CHEMICAL CORPORATION, priority 2019, published 2023):
# How the values were obtained:
# barnyard grass [1] = assay: Test Example 3: herbicidal effect by foliage application, Wagner pot (Table 18, symbol H); type: in vivo, barnyard grass (Echinochloa crus-galli)
# How it was run: (§1)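 Plants were sown in alluvial soil held under 0.1–0.5 cm standing water and grown 14 days in a greenhouse at 25–30 °C. An emulsifiable formulation, water-diluted to the set dose, was then sprayed onto the foliage, and effects were scored three weeks later using previously defined criteria.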
# Chinese sprangletop = assay: Test Example 3: herbicidal effect by foliage application, Wagner pot (Table 18, symbol D); type: in vivo, chinese sprangletop (Leptochloa chinensis)
# How it was run: as §1
# rice flat sedge = assay: Test Example 3: herbicidal effect by foliage application, Wagner pot (Table 18, symbol E); type: in vivo, rice flat sedge (Cyperus iria)
# How it was run: as §1
# southern crabgrass [2] = assay: Test Example 4: herbicidal effect by soil treatment (Table 19, symbol F); type: in vivo, southern crabgrass (Digitaria ciliaris)
# How it was run: (§2)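 Emulsion of test compound, water-diluted to predetermined amount, sprayed on soil after sowing (seed depth ~1.5 cm, sterilized diluvial soil). Greenhouse, 25–30° C. Effect graded at three weeks post-spray.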
# green foxtail [3] = assay: Test Example 4: herbicidal effect by soil treatment (Table 19, symbol G); type: in vivo, green foxtail (Setaria viridis)
# How it was run: as §2
# barnyard grass [4] = assay: Test Example 4: herbicidal effect by soil treatment (Table 19, symbol H); type: in vivo, barnyard grass (Echinochloa crus-galli)
# How it was run: as §2
# wild oat [5] = assay: Test Example 4: herbicidal effect by soil treatment (Table 19, symbol I); type: in vivo, wild oat (Avena fatua)
# How it was run: as §2
# blackgrass [6] = assay: Test Example 4: herbicidal effect by soil treatment (Table 19, symbol J); type: in vivo, blackgrass (Alopecurus myosuroides)
# How it was run: as §2
# Italian ryegrass [7] = assay: Test Example 4: herbicidal effect by soil treatment (Table 19, symbol K); type: in vivo, Italian ryegrass (Lolium multiflorum)
# How it was run: as §2
# windgrass [8] = assay: Test Example 4: herbicidal effect by soil treatment (Table 19, symbol L); type: in vivo, windgrass (Apera spica-venti)
# How it was run: as §2
# velvetleaf [9] = assay: Test Example 4: herbicidal effect by soil treatment (Table 19, symbol M); type: in vivo, velvetleaf (Abutilon theophrasti)
# How it was run: as §2
# redroot pigweed [10] = assay: Test Example 4: herbicidal effect by soil treatment (Table 19, symbol N); type: in vivo, redroot pigweed (Amaranthus retroflexus)
# How it was run: as §2
# lambsquarters [11] = assay: Test Example 4: herbicidal effect by soil treatment (Table 19, symbol O); type: in vivo, lambsquarters (Chenopodium album)
# How it was run: as §2
# chickweed [12] = assay: Test Example 4: herbicidal effect by soil treatment (Table 19, symbol P); type: in vivo, common chickweed (Stellaria media)
# How it was run: as §2
# persian speedwell [13] = assay: Test Example 4: herbicidal effect by soil treatment (Table 19, symbol R); type: in vivo, Persian speedwell (Veronica persica)
# How it was run: as §2
# southern crabgrass [14] = assay: Test Example 5: herbicidal effect by foliage application, plastic box (Table 20, symbol F); type: in vivo, southern crabgrass (Digitaria ciliaris)
# How it was run: (§3)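 Post-emergence foliar test in sterilized diluvial soil. Compound applied as water-diluted emulsion at a predetermined rate to 14-day-old plants; evaluation at three weeks.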
# green foxtail [15] = assay: Test Example 5: herbicidal effect by foliage application, plastic box (Table 20, symbol G); type: in vivo, green foxtail (Setaria viridis)
# How it was run: as §3
# barnyard grass [16] = assay: Test Example 5: herbicidal effect by foliage application, plastic box (Table 20, symbol H); type: in vivo, barnyard grass (Echinochloa crus-galli)
# How it was run: as §3
# wild oat [17] = assay: Test Example 5: herbicidal effect by foliage application, plastic box (Table 20, symbol I); type: in vivo, wild oat (Avena fatua)
# How it was run: as §3
# blackgrass [18] = assay: Test Example 5: herbicidal effect by foliage application, plastic box (Table 20, symbol J); type: in vivo, blackgrass (Alopecurus myosuroides)
# How it was run: as §3
# Italian ryegrass [19] = assay: Test Example 5: herbicidal effect by foliage application, plastic box (Table 20, symbol K); type: in vivo, Italian ryegrass (Lolium multiflorum)
# How it was run: as §3
# windgrass [20] = assay: Test Example 5: herbicidal effect by foliage application, plastic box (Table 20, symbol L); type: in vivo, windgrass (Apera spica-venti)
# How it was run: as §3
# velvetleaf [21] = assay: Test Example 5: herbicidal effect by foliage application, plastic box (Table 20, symbol M); type: in vivo, velvetleaf (Abutilon theophrasti)
# How it was run: as §3
# redroot pigweed [22] = assay: Test Example 5: herbicidal effect by foliage application, plastic box (Table 20, symbol N); type: in vivo, redroot pigweed (Amaranthus retroflexus)
# How it was run: as §3
# lambsquarters [23] = assay: Test Example 5: herbicidal effect by foliage application, plastic box (Table 20, symbol O); type: in vivo, lambsquarters (Chenopodium album)
# How it was run: as §3
# chickweed [24] = assay: Test Example 5: herbicidal effect by foliage application, plastic box (Table 20, symbol P); type: in vivo, common chickweed (Stellaria media)
# How it was run: as §3
# persian speedwell [25] = assay: Test Example 5: herbicidal effect by foliage application, plastic box (Table 20, symbol R); type: in vivo, Persian speedwell (Veronica persica)
# How it was run: as §3
# [26] = amount of applied herbicide 320 g/ha
# [27] = 320 g/ha, foliage application after 14-day growth, evaluated three weeks after application
# [28] = foliage application, AAH 80 g/ha, three weeks after application
smiles,measurement,setting,value
CCCC(=O)Oc1c(C)nn(C)c(=O)c1-c1c(-c2ccccc2F)sc2c(Cl)cccc12 [4-059],herbicidal effect on barnyard grass (H),barnyard grass [1]; 320 g/ha,4 (Herbicidal rate of 70% or more and less than 90%)
same,herbicidal effect on Chinese sprangletop (D),Chinese sprangletop; 320 g/ha,4 (Herbicidal rate of 70% or more and less than 90%)
same,herbicidal effect on rice flat sedge (E),rice flat sedge; 320 g/ha,4 (Herbicidal rate of 70% or more and less than 90%)
same,"Herbicidal effect by soil treatment, F: southern crabgrass",southern crabgrass [2]; [26],0 (Herbicidal rate of 5% or less (almost no effect))
same,"Herbicidal effect by soil treatment, G: green foxtail",green foxtail [3]; [26],0 (Herbicidal rate of 5% or less (almost no effect))
same,"Herbicidal effect by soil treatment, H: barnyard grass",barnyard grass [4]; [26],0 (Herbicidal rate of 5% or less (almost no effect))
same,"Herbicidal effect by soil treatment, I: wild oat",wild oat [5]; [26],0 (Herbicidal rate of 5% or less (almost no effect))
same,"Herbicidal effect by soil treatment, J: blackgrass",blackgrass [6]; [26],0 (Herbicidal rate of 5% or less (almost no effect))
same,"Herbicidal effect by soil treatment, K: Italian ryegrass",Italian ryegrass [7]; [26],0 (Herbicidal rate of 5% or less (almost no effect))
same,"Herbicidal effect by soil treatment, L: windgrass",windgrass [8]; [26],0 (Herbicidal rate of 5% or less (almost no effect))
same,"Herbicidal effect by soil treatment, M: velvetleaf",velvetleaf [9]; [26],0 (Herbicidal rate of 5% or less (almost no effect))
same,"Herbicidal effect by soil treatment, N: redroot pigweed",redroot pigweed [10]; [26],0 (Herbicidal rate of 5% or less (almost no effect))
same,"Herbicidal effect by soil treatment, O: lambsquarters",lambsquarters [11]; [26],0 (Herbicidal rate of 5% or less (almost no effect))
same,"Herbicidal effect by soil treatment, P: chickweed",chickweed [12]; [26],4 (Herbicidal rate of 70% or more and less than 90%)
same,"Herbicidal effect by soil treatment, R: persian speedwell",persian speedwell [13]; [26],4 (Herbicidal rate of 70% or more and less than 90%)
same,herbicidal effect on F: southern crabgrass (evaluation grade 0-5),southern crabgrass [14]; [27],0 (Herbicidal rate of 5% or less (almost no effect))
same,herbicidal effect on G: green foxtail (evaluation grade 0-5),green foxtail [15]; [27],0 (Herbicidal rate of 5% or less (almost no effect))
same,herbicidal effect on H: barnyard grass (evaluation grade 0-5),barnyard grass [16]; [27],0 (Herbicidal rate of 5% or less (almost no effect))
same,herbicidal effect on I: wild oat (evaluation grade 0-5),wild oat [17]; [27],1 (Herbicidal rate of 5% or more and less than 20%)
same,herbicidal effect on J: blackgrass (evaluation grade 0-5),blackgrass [18]; [27],0 (Herbicidal rate of 5% or less (almost no effect))
same,herbicidal effect on K: Italian ryegrass (evaluation grade 0-5),Italian ryegrass [19]; [27],0 (Herbicidal rate of 5% or less (almost no effect))
same,herbicidal effect on L: windgrass (evaluation grade 0-5),windgrass [20]; [27],0 (Herbicidal rate of 5% or less (almost no effect))
same,herbicidal effect on M: velvetleaf (evaluation grade 0-5),velvetleaf [21]; [27],3 (Herbicidal rate of 40% or more and less than 70%)
same,herbicidal effect on N: redroot pigweed (evaluation grade 0-5),redroot pigweed [22]; [27],3 (Herbicidal rate of 40% or more and less than 70%)
same,herbicidal effect on O: lambsquarters (evaluation grade 0-5),lambsquarters [23]; [27],2 (Herbicidal rate of 20% or more and less than 40%)
same,herbicidal effect on P: chickweed (evaluation grade 0-5),chickweed [24]; [27],5 (Herbicidal rate of 90% or more (almost completely withered))
same,herbicidal effect on R: persian speedwell (evaluation grade 0-5),persian speedwell [25]; [27],4 (Herbicidal rate of 70% or more and less than 90%)
COc1nn(C)c(=O)c(-c2c(-c3ccc(-c4ccccc4)cc3)sc3ccccc23)c1O [1-166],"herbicidal effect on H (barnyard grass), rating 0-5",barnyard grass [1]; 80 g/ha,4 (Herbicidal rate of 70% or more and less than 90%)
same,"herbicidal effect on D (Chinese sprangletop), rating 0-5",Chinese sprangletop; 80 g/ha,4 (Herbicidal rate of 70% or more and less than 90%)
same,"herbicidal effect on E (rice flat sedge), rating 0-5",rice flat sedge; 80 g/ha,5 (Herbicidal rate of 90% or more (almost completely withered))
same,"F: southern crabgrass, herbicidal effect rating",southern crabgrass [2]; AAH 80 g/ha,0 (Herbicidal rate of 5% or less (almost no effect))
same,"G: green foxtail, herbicidal effect rating",green foxtail [3]; AAH 80 g/ha,0 (Herbicidal rate of 5% or less (almost no effect))
same,"H: barnyard grass, herbicidal effect rating",barnyard grass [4]; AAH 80 g/ha,0 (Herbicidal rate of 5% or less (almost no effect))
same,"I: wild oat, herbicidal effect rating",wild oat [5]; AAH 80 g/ha,0 (Herbicidal rate of 5% or less (almost no effect))
same,"J: blackgrass, herbicidal effect rating",blackgrass [6]; AAH 80 g/ha,0 (Herbicidal rate of 5% or less (almost no effect))
same,"K: Italian ryegrass, herbicidal effect rating",Italian ryegrass [7]; AAH 80 g/ha,0 (Herbicidal rate of 5% or less (almost no effect))
same,"L: windgrass, herbicidal effect rating",windgrass [8]; AAH 80 g/ha,0 (Herbicidal rate of 5% or less (almost no effect))
same,"M: velvetleaf, herbicidal effect rating",velvetleaf [9]; AAH 80 g/ha,0 (Herbicidal rate of 5% or less (almost no effect))
same,"N: redroot pigweed, herbicidal effect rating",redroot pigweed [10]; AAH 80 g/ha,0 (Herbicidal rate of 5% or less (almost no effect))
same,"O: lambsquarters, herbicidal effect rating",lambsquarters [11]; AAH 80 g/ha,0 (Herbicidal rate of 5% or less (almost no effect))
same,"P: chickweed, herbicidal effect rating",chickweed [12]; AAH 80 g/ha,4 (Herbicidal rate of 70% or more and less than 90%)
same,"R: persian speedwell, herbicidal effect rating",persian speedwell [13]; AAH 80 g/ha,1 (Herbicidal rate of 5% or more and less than 20%)
same,"F: southern crabgrass, herbicidal effect",southern crabgrass [14]; [28],0 (Herbicidal rate of 5% or less (almost no effect))
same,"G: green foxtail, herbicidal effect",green foxtail [15]; [28],0 (Herbicidal rate of 5% or less (almost no effect))
same,"H: barnyard grass, herbicidal effect",barnyard grass [16]; [28],0 (Herbicidal rate of 5% or less (almost no effect))
same,"I: wild oat, herbicidal effect",wild oat [17]; [28],0 (Herbicidal rate of 5% or less (almost no effect))
same,"J: blackgrass, herbicidal effect",blackgrass [18]; [28],0 (Herbicidal rate of 5% or less (almost no effect))
same,"K: Italian ryegrass, herbicidal effect",Italian ryegrass [19]; [28],0 (Herbicidal rate of 5% or less (almost no effect))
same,"L: windgrass, herbicidal effect",windgrass [20]; [28],0 (Herbicidal rate of 5% or less (almost no effect))
same,"M: velvetleaf, herbicidal effect",velvetleaf [21]; [28],0 (Herbicidal rate of 5% or less (almost no effect))
same,"N: redroot pigweed, herbicidal effect",redroot pigweed [22]; [28],3 (Herbicidal rate of 40% or more and less than 70%)
same,"O: lambsquarters, herbicidal effect",lambsquarters [23]; [28],2 (Herbicidal rate of 20% or more and less than 40%)
same,"P: chickweed, herbicidal effect",chickweed [24]; [28],3 (Herbicidal rate of 40% or more and less than 70%)
same,"R: persian speedwell, herbicidal effect",persian speedwell [25]; [28],5 (Herbicidal rate of 90% or more (almost completely withered))
